From patent US11273152B2, “TRPV2 antagonists” (Instituto de Medicina Molecular João Lobo Antunes, priority 2017, dated 2022) come the findings set out here.

One assay addresses TRPA1 (Homo sapiens, UniProt O75762). In words: Fluorescence cell-based assay, TRPA1. The conditions noted are these: calcium 5 dye, spread in log units, duplicate. The protocol:
(§1) The assays were performed at SB Discovery (Glasgow, UK) on a fee-for-service basis. Human TRP cells were trypsinised, counted and seeded in black, clear-bottomed 96 well plates at a density of 50,000 cells per well in 100 μL volume and incubated overnight. Next day, the cells were loaded with calcium 5 dye or membrane potential dye. TRPV1-5, TRPA1, TRPM2, TRPM3, and TRPM8 were tested using the calcium 5 dye. TRPC1, TRPC3-7, and TRPM4-5 were tested using the membrane potential dye. Both dye solutions were made up in HEPES buffered Hank's balanced salt solution (HBSS). Dye solution (90 μL) was added to the wells and incubated at 37° C. for 1 hour. Test compounds and standard inhibitors (10 μL) were then added to the wells and incubated at room temperature for 10 minutes. The plates were then placed in the flexstation and fluorescence monitored every 1.52 seconds. After 20 seconds agonist was added and the fluorescence monitored for 2 minutes at 485 nm/525 nm and 530 nm/565 nm, Ex/Em, for the calcium 5 dye and the membrane potential dye respectively. Controls-TRPV1: capsazepine; TRPV2: tranilast; TRPV3: ruthenium red; TRPV4: ruthenium red; TRPV5: Gd^3+; TRPA1, ruthenium red; TRPC1: Gd^3+; TRPC3: Pyr3; TRPC4: ML 204; TRPC5: ML 204; TRPC6: ML 204; TRPC7: SKF 96365; TRPM2: 2-APB; TRPM3: Mef acid; TRPM4: clotrimazole; TRPM5: TPPO; TRPM8: 2-APB. […]

Another assay deals with TRPC7 (Homo sapiens, UniProt Q9HCX4). Put plainly: Fluorescence cell-based assay, TRPC7. Conditions: membrane potential dye, spread in log units, duplicate. The protocol: as §1
Assay [1] has as its target T1, TRPV2 (Homo sapiens, UniProt Q9Y5S1).
T1 sequence (Q9Y5S1 1-764): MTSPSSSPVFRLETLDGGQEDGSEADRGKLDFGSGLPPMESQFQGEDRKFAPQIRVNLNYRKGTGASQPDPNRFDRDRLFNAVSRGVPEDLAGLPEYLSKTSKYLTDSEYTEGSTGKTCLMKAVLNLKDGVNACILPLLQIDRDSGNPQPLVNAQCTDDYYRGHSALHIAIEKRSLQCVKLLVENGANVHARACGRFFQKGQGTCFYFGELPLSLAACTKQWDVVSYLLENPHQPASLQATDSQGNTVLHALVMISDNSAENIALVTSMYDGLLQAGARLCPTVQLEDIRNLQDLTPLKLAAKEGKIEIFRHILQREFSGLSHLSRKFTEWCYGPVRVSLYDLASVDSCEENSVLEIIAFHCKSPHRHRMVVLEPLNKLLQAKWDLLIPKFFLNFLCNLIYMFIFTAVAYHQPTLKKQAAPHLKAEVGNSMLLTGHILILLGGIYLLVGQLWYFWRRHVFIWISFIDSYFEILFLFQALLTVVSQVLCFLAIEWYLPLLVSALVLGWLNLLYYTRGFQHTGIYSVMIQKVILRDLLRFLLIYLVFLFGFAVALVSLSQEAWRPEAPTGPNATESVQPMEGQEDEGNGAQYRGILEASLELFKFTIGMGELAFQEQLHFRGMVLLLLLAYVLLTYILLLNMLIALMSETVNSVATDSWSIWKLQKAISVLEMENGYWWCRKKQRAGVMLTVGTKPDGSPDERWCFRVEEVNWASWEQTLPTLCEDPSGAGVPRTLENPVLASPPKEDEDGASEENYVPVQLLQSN
In words: Fluorescence cell-based assay, TRPV2 (cannabidiol-evoked calcium influx). Conditions: spread in log units; n=2; read-out: IC50 against TRPV2, fluorescence-based assay (FIG. 2a). As for the experimental part:
The assays were performed at SB Discovery (Glasgow, UK) on a fee-for-service basis. Human TRP cells were trypsinised, counted and seeded in black, clear-bottomed 96 well plates at a density of 50,000 cells per well in 100 μL volume and incubated overnight. Next day, the cells were loaded with calcium 5 dye or membrane potential dye. TRPV1-5, TRPA1, TRPM2, TRPM3, and TRPM8 were tested using the calcium 5 dye. TRPC1, TRPC3-7, and TRPM4-5 were tested using the membrane potential dye. Both dye solutions were made up in HEPES buffered Hank's balanced salt solution (HBSS). Dye solution (90 μL) was added to the wells and incubated at 37° C. for 1 hour. Test compounds and standard inhibitors (10 μL) were then added to the wells and incubated at room temperature for 10 minutes. The plates were then placed in the flexstation and fluorescence monitored every 1.52 seconds. After 20 seconds agonist was added and the fluorescence monitored for 2 minutes at 485 nm/525 nm and 530 nm/565 nm, Ex/Em, for the calcium 5 dye and the membrane potential dye respectively. Controls-TRPV1: capsazepine; TRPV2: tranilast; TRPV3: ruthenium red; TRPV4: ruthenium red; TRPV5: Gd^3+; TRPA1, ruthenium red; TRPC1: Gd^3+; TRPC3: Pyr3; TRPC4: ML 204; TRPC5: ML 204; TRPC6: ML 204; TRPC7: SKF 96365; TRPM2: 2-APB; TRPM3: Mef acid; TRPM4: clotrimazole; TRPM5: TPPO; TRPM8: 2-APB. Control data was in all cases within historical range.

For assay [2], the target named is T1, TRPV2. Put plainly: Manual patch-clamp assay, hTRPV2 stable HEK-293 cells. It counts as cell-based. The conditions noted are these: n=3. As for the experimental part: The assays were performed at SB Discovery (Glasgow, UK) on a fee-for-service basis. Concentration-response curves and washout assays were performed using a manual patch clamp method. HEK-293 cells were grown and prepared, according to the adapted procedure for hTRPV2 stable cell lines at SB Discovery. Cells were serum starved for approximately 24 hours and then changed to serum-containing media prior to electrophysiology testing. The manual patch-clamp assay was carried out at room temperature using a traditional electrophysiological unit. Cells were used within 2-3 hours after addition of serum containing media to the cells. The standard extracellular solution contained 145 mM NaCl, 4 mM KCl, 2 mM CaCl2, 1 mM MgCl2, 10 mM HEPES and 10 mM glucose. The pH was adjusted to 7.4 with NaOH, and the osmolarity was measured as 311 mOsm/L. The standard intracellular solution contained 50 mM KCl, 10 mM NaCl, 60 mM KF, 2 mM MgCl2, 20 mM EGTA and 10 mM HEPES. The pH was adjusted to 7.2 with KOH and the osmolarity was measured as 286 mOsm/L. A standard ramp protocol was used to monitor currents upon addition of control (extracellular solution) and compound solutions. The voltage protocol consisted of a series of voltage ramps from −100 mV to +100 mV, every 5 seconds, from a holding potential of −60 mV. The maximum outward current values during the recordings at +100 mV were used for analysis. Manual patch clamp experiments were carried out using an Axon 200B amplifier and a Digidata 1440A acquisition system from Axon Instruments (Molecular Devices, USA). The software program pClamp (version 10) from Axon Instruments was used to stimulate and record electrical activity. Capacitative transients were compensated electronically from the recordings, however the voltage drop across the series resistance and the liquid junction potential were not compensated. The series resistance was generally less than 10 MΩ, with a mean cell capacity of approximately 25 pF. The GraphPad Prism (version 5) software was used to analyze and plot all graphs. The agonist (cannabidiol; Abcam #ab120448) was prepared as 100 mM stock in 100% DMSO and diluted to 4 μM or 10 μM in physiological solution prior to testing. Piperlongumine was prepared as 100 mM stock in 100% DMSO and diluted to the specified concentrations in physiological solution (100, 50, 10, 1 and 0.1 μM), also containing 4 μM or 10 μM cannabidiol. Ruthenium red (Sigma, #R2751) was prepared daily as 10 mM stock ion distilled water and diluted to 100 μM in physiological solution.
A general note: In patch-clamp work, channel activity is measured electrically.

As a reminder, the IC50 is the point on the concentration scale where inhibition reaches its midpoint. As a reminder, the EC50 is the concentration that produces a half-maximal response.

TRPC7, sequence (Q9HCX4 whole entry): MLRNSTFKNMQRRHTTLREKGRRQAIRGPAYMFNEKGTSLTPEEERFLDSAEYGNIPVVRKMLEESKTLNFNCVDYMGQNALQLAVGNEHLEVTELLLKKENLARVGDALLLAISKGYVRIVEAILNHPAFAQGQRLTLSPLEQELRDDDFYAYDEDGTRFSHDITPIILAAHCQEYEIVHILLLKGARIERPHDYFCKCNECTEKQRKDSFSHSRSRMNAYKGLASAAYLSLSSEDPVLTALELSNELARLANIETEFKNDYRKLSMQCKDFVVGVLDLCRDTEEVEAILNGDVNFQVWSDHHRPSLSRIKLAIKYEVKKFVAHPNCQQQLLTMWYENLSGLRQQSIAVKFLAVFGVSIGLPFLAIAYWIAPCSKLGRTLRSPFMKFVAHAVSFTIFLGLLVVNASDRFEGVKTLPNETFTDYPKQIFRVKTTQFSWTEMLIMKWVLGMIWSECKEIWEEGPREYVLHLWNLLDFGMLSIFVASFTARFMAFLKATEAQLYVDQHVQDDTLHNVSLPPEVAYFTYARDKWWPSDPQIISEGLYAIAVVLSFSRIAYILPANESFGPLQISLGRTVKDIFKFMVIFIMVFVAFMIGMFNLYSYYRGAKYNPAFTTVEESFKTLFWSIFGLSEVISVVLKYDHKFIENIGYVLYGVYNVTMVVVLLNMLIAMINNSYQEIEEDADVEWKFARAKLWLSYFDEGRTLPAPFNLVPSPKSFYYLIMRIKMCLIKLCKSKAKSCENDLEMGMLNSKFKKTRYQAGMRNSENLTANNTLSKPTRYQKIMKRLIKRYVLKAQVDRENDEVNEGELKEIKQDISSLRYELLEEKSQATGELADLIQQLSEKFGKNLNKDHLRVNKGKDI
TRPA1, sequence (O75762 whole entry): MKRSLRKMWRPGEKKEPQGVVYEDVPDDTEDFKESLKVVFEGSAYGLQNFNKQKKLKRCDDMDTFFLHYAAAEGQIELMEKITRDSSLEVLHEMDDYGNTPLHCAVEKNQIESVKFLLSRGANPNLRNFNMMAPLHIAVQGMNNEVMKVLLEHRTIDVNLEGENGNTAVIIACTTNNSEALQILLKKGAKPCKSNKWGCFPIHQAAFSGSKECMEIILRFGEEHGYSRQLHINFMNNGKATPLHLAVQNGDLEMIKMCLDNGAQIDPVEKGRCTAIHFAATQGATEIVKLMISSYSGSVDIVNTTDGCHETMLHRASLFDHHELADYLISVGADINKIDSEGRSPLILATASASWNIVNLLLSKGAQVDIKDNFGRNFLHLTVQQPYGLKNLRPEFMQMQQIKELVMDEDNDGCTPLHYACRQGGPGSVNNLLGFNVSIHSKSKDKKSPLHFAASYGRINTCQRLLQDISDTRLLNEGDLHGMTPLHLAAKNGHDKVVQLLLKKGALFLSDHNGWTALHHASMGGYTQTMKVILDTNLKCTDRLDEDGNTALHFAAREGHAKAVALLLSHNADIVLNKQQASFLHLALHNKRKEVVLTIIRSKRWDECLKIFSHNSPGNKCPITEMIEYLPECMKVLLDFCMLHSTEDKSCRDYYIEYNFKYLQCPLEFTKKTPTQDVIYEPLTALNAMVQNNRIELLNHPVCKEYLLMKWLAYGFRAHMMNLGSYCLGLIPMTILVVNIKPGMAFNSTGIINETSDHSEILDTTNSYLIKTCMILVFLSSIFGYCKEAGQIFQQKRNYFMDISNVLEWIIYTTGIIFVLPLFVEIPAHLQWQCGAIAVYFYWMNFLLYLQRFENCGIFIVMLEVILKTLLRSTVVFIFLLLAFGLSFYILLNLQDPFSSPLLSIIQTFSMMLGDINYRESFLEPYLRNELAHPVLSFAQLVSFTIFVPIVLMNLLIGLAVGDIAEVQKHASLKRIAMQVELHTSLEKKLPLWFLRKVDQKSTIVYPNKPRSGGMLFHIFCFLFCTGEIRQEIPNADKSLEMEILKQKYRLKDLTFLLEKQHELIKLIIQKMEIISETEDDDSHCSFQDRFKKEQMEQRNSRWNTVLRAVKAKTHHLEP

Turning to `Cl.Cl.Cl.Cl.Cl.Cl.N.N.N.N.N.N.N.N.N.N.N.N.N.N.[O-2].[O-2].[Ru+3].[Ru+3].[Ru+4]` [ruthenium red, reference compound], at TRPA1, the IC50 came to 2.3 µM.
As for `COc1ccc(CCCOC(Cn2ccnc2)c2ccc(OC)cc2)cc1` (centres unmarked) [SKF 96365, reference compound], the IC50 against TRPC7 came to 103 µM.
For the molecule `COc1ccc(/C=C/C(=O)Nc2ccccc2C(=O)O)cc1OC` [tranilast, reference compound], the IC50 at TRPV2 [1] worked out at 2.3 ± 0.25 µM.
For the molecule `C=C(C)[C@@H]1CCC(C)=C[C@H]1c1c(O)cc(CCCCC)cc1O` [cannabidiol, reference compound], the “nHill (cannabidiol), TRPV2” value on TRPV2 [2] turned out to be 0.6. Besides, the EC50 on TRPV2 [2] (read-out: EC50 (cannabidiol), TRPV2) turned out to be 3.8 µM.
